{"source": "paper PMC4320118", "about": "“Micheliolide Derivative DMAMCL Inhibits Glioma Cell Growth In Vitro and In Vivo” (PLoS ONE, 2015)", "key": {"intracerebral C6 glioma": {"tested_on": "intracerebral C6 glioma", "experiment": "Survival time analysis in C6 intracerebral glioma rats", "format": "in vivo, Wistar rats", "details": "for Survival (# of rats) End: 63 days, n = 10; for Survival: at 63 days; for Mean survival / Median survival: observation 63 days", "procedure": "C6 tumors were maintained as subcutaneous tumors in rats.\nThe survival time analyses were performed in C6 intracerebral glioma rats. […] Animals were monitored daily for signs of mortality and weight. Rats were sacrificed when a loss of mobility, lethargy, hemorrhaging around the eyes, or a hunched posture was observed as previously described. The observation time was terminated when all the vehicle rats died. Then the other rats were euthanized by CO2 asphyxiation."}, "C6 cells": {"tested_on": "C6 cells", "experiment": "Apoptosis by Annexin V/PI flow cytometry, C6", "format": "cell-based, rat", "procedure": "Glioma cells (10^4) in the logarithmic growth phase were seeded in 6-well plates for 24 h. Cells were treated with DMAMCL at 240, 120, 60, 30, 15, or 0 μM. They were removed from culture plates with 0.5% trypsin containing ethylene diamine tetraacetic acid (EDTA). Apoptosis of C6 cells was measured using an Annexin V and propidium iodide (PI) apoptosis detection kit (Invitrogen, USA) and a Beckman flow cytometer (Cytomics FC500, Beckman Coulter, USA)."}, "U-87MG cells": {"tested_on": "U-87MG cells", "experiment": "Apoptosis by Annexin V/PI flow cytometry, U-87MG", "format": "cell-based, human"}, "[1]": {"details": "DMAMCL 25 mg/kg daily for 21 days"}, "[2]": {"details": "DMAMCL 50 mg/kg daily for 21 days"}, "[3]": {"details": "DMAMCL 100 mg/kg daily for 21 days"}, "[4]": {"details": "24 hr post-treatment, dose-dependent"}}, "note": "Values joined by “and” are separate entries in the source; they are usually repeats but may differ in a detail not shown here. Equal values may be shown once.", "data": [{"smiles": "CC1=C2CC[C@@](C)(O)[C@@H]2[C@H]2OC(=O)[C@@H](CN(C)C)[C@@H]2CC1", "note": "[DMAMCL, dimethylaminomicheliolide]", "values": [{"measurement": "Median survival of deceased animals", "setting": "intracerebral C6 glioma; [1]", "value": 28, "unit": "days"}, {"measurement": "Time of death End", "setting": "intracerebral C6 glioma; [1]", "value": 42, "unit": "days"}, {"measurement": "Time of death Start", "setting": "intracerebral C6 glioma; [1]", "value": 20, "unit": "days"}, {"measurement": "Survival (# of rats) End", "setting": "intracerebral C6 glioma; [1]", "value": "7 # of rats"}, {"measurement": "Survival", "setting": "intracerebral C6 glioma; [1]", "value": "70% and 70 ^** %"}, {"measurement": "Mean survival", "setting": "intracerebral C6 glioma; [1]", "value": "53.1 ± 16.8", "unit": "days"}, {"measurement": "Median survival", "setting": "intracerebral C6 glioma; [1]", "value": 63, "unit": "days"}, {"measurement": "Median survival of deceased animals", "setting": "intracerebral C6 glioma; [2]", "value": 25, "unit": "days"}, {"measurement": "Time of death End", "setting": "intracerebral C6 glioma; [2]", "value": 25, "unit": "days"}, {"measurement": "Time of death Start", "setting": "intracerebral C6 glioma; [2]", "value": 25, "unit": "days"}, {"measurement": "Survival (# of rats) End", "setting": "intracerebral C6 glioma; [2]", "value": "9 # of rats"}, {"measurement": "Survival", "setting": "intracerebral C6 glioma; [2]", "value": "90% and 90 ^*** %"}, {"measurement": "Mean survival", "setting": "intracerebral C6 glioma; [2]", "value": "59.2 ± 12", "unit": "days"}, {"measurement": "Median survival", "setting": "intracerebral C6 glioma; [2]", "value": 63, "unit": "days"}, {"measurement": "Median survival of deceased animals", "setting": "intracerebral C6 glioma; [3]", "value": 41, "unit": "days"}, {"measurement": "Time of death End", "setting": "intracerebral C6 glioma; [3]", "value": 41, "unit": "days"}, {"measurement": "Time of death Start", "setting": "intracerebral C6 glioma; [3]", "value": 41, "unit": "days"}, {"measurement": "Survival (# of rats) End", "setting": "intracerebral C6 glioma; [3]", "value": "9 # of rats"}, {"measurement": "Survival", "setting": "intracerebral C6 glioma; [3]", "value": "90% and 90 ^*** %"}, {"measurement": "Mean survival", "setting": "intracerebral C6 glioma; [3]", "value": "60.8 ± 7", "unit": "days"}, {"measurement": "Median survival", "setting": "intracerebral C6 glioma; [3]", "value": 63, "unit": "days"}, {"measurement": "Survival longer than vehicle animals", "setting": "intracerebral C6 glioma; DMAMCL-treated rats", "value": "~ 30 days"}, {"measurement": "Surviving cells", "setting": "C6 cells; 240 μM", "value": "few surviving"}, {"measurement": "Early and late apoptosis and necrosis", "setting": "C6 cells; [4]", "value": "significantly increased early and late apoptosis and necrosis"}, {"measurement": "Surviving cells", "setting": "U-87MG cells; 240 μM", "value": "few surviving"}, {"measurement": "Early and late apoptosis and necrosis", "setting": "U-87MG cells; [4]", "value": "significantly increased early and late apoptosis and necrosis"}]}]}
